The test system of one assay is Arabidopsis root growth. As to conditions: synthetic 15 amino acid peptide at 10^−6 M to 10^−7 M; cited from earlier work.
The subject of assay [1] is Brachypodium distachyon BD21. Kind of assay: Shoot growth of B. distachyon in layered agar medium containing CEP peptide. The format is in vivo. The following applies: 16 day old plants, 1 μM peptide in medium with barrier; for shoot length: vs no peptide controls, ANOVA. As to the method:
Brachypodium. distachyon BD21 seeds were sterilised by washing in 80% ethanol for 1 minute, followed by shaking in 50 ml of 10% stock sodium hypochlorite (Northfork) with 200 μl of Triton X-100 (per 50 mL) for 5 minutes, before rinsing three times in sterile water. Seeds were then stratified for 3 days in the dark at 4° C. to induce synchronized germination. Plants were grown at 21° C. on a 16/8 h light/dark cycle in a constant environment walk-in cabinet (100 μmol/m^−2/s^−2).
Murashige and Skoog basal medium (Sigma-Aldrich Corporation, St. Louis, USA) was prepared (2.2 g/L, sterile RO water), 10% MES buffer added, and the pH adjusted to 5.7 using 1 M KOH. Falcon tubes (BD Biosciences, Australia; 50 mL max volume) containing two agar layers were prepared using the following ranges of agar concentrations: 0.2%, 0.4%, 0.5%, 0.8%, 1.0% for soft top layer and 0.5%, 1.0%, 1.5%, 2.0%, 2.5%, 3.0% and 4.0% for hard bottom layer. Type-M agar (Sigma-Aldrich Corporation) was used in all experiments. The hard layers contained 15 mL of agar and the (upper) soft layers contained 10 mL of agar. Seeds were placed one per falcon tube for root assays, with embryos facing away from the media.
Synthetic CEP peptides corresponding to those predicted to be the final products of the BdCEP1 and AtCEP5 coding sequences (SEQ ID NOs: 483 and 11, respectively) were prepared (but the BdCEP1 peptide was synthesized missing the first two amino acids, and designated as BdCEP3a in FIGS. 16 and 17) and added to molten media (60° C.) to a final concentration of 1μM.
Tubes were set up with optimal agar concentrations of 0.5% for soft top layer and 2.5% for hard bottom layer which induced a strong mechanical response in untreated plants. A layered agar system with no peptide addition and an un-layered system (0.5%, uniform agar concentration; 25 ml) with no peptide addition were used as controls. Each tube was fitted into an 8 slot Falcon tube rack which was covered in aluminum foil to minimize light exposure to the root systems. This system allowed tubes to be periodically removed for easy visual inspection. The upper level of the soft layer was below the level of the rack.
Shoot length was measured at the end of the growth period. Data obtained from analyzing root system measurements were statistically analyzed.

Assay [2] has as its system Arabidopsis thaliana (accession Col-0). Kind of assay: Root growth assay of Col-0 plants on standard medium supplemented with synthetic CEP peptides. The format is in vivo. As to conditions: 12-day-old Col-0 plants, peptide at 10−6 M (1 μM), compared to untreated plants. The procedure: FIG. 8—CEP synthetic peptides decrease primary root length and lateral root density. (A) CEP peptides used in growth assays. (hyP) indicates hydroxyproline residues. (B) Alignment of CEP3, CEP5 and CEP9.1 peptide domains. (C) Primary root length and lateral root density of 12-day-old Col-0 plants grown on standard medium supplemented with 1 μM of the specified peptide. n≥7 plants. (D) Differential biological activity of CEP3, CEP5 and CEP9 peptide variants. The histogram indicates the lowest concentration at which a peptide elicited a significant reduction in primary root length compared to untreated plants (P<0.05). Col-0 plants were grown vertically for 12 days on standard medium supplemented with peptide concentrations ranging from 10^−6 M to 10^−12 M. n=7-16 plants. Error bars show standard error. *P≤0.05; **P≤0.01; *** P≤0.001 (two-sample t-test, Genstat).
For root assays, seeds of Arabidopsis thaliana (accession Col-0) were surface sterilized with 6.25% bleach, stratified for 3-4 days and sown onto plates. […] Plates were imaged using an Epson scanner and images were analysed using the SmartRoot plugin (Lobet et al., 2011) in ImageJ. Statistically significant differences were determined using a two-sample t-test (Genstat 14th edition) where appropriate. […]

For another assay, the system named is M. truncatula roots. The experiment in a line: Exogenous application of synthetic CEP peptides to M. truncatula roots. The format is in vivo, Medicago truncatula. The following applies: synthetic ligand applied to roots. The text has this:
The CEP peptides were synthesized at the Biomolecular Resource Facility, The Australian National University. The 15 amino acid (aa) peptides corresponding to the conserved domains of MtCEP1 (AFQHypTTPGNSHypGVGH and EFQKTNPGHSHypGVGH—SEQ ID Nos: 451 and 452 respectively—where Hyp indicates hydroxy proline residue) and M. hapla MhCEP2 (AFRHypTAPGHSHypGVGH; SEQ ID NO: 453) were synthesized and validated as previously described in Djordjevic M A, et al. (2011), “Border sequences of Medicago truncatula CLE36 are specifically cleaved by endoproteases common to the extracellular fluids of Medicago and soybean”, J Exp Bot 62(13):4649-4659. The root length of wild-type plants was measured four days after transfer to Fåhraeus-medium containing the synthetic peptide. For the hormone assays, A17 plants were grown on Fåhraeus-medium for 10 days before transferring to Fåhraeus-medium containing 10^−6 M of the respective phytohormones; 1-aminocyclopropane-1-carboxylic acid (ACC), 6-benzylaminopurine (BAP), gibberellic acid (GA), synthetic analog of strigolactone (GR24), methyl jasmonate (MeJA) and 1-naphthaleneacetic acid (NAA).

Consider 6 substances from US10428336B2, “Method for modulating plant growth” (The Australian National University, priority 2013, dated 2019).

Square brackets hold non-standard residues; d marks the D form. Ends that are not written are not given here. Hyp = O=C(O)[C@@H]1C[C@@H](O)CN1

Turning to “CEP1: synthetic 15 amino acid CEP1 peptide of Ohyama et al., 2008 (DFRPTNPGNSPGVGH; ends and bridges not checked; listed as Arabidopsis thaliana)”, the root growth result with Arabidopsis root growth is recorded as “inhibited root growth”.

As for “DSTTPGHSPSIGH (also: hydroxyproline predicted at Pro5 and Pro9, not given here for synthetic peptide) [BdCEP1, BdCEP1 peptide synthesized missing the first two amino acids, designated BdCEP3a]”, in assay [1], the “number of leaves per plant on average” value was determined as 4.7 leaves and the shoot length result is “significantly longer shoots”.

For the substance “DFVPTSPGNSPGVGH [CEP9.1, synthetic non-hydroxylated CEP9.1 peptide domain]”, in assay [2], the lateral root density entry is “reduced lateral root density” and the primary root length entry is given as “much weaker effect on primary root length”.

For AFR[Hyp]TAPGHS[Hyp]GVGH [MhCEP2], the “root phenotype (periodic bumps resembling galls)” value in the assay on M. truncatula roots was “periodic bumps induced”.

Take “AFQHypTTPGNSHypGVGH and EFQKTNPGHSHypGVGH [MtCEP1]”: the “root phenotype (periodic bumps resembling galls)” value in the assay with M. truncatula roots is reported as “periodic bumps induced”.

Turning to DFRPTTPGHSPGIGH [AtCEP5], in assay [1], the “number of leaves per plant on average” value came to 4.9 leaves and the shoot length entry is “significantly longer shoots”.
